According to ChEMBL document CHEMBL1201861, “Genomics of Drug Sensitity in Cancer screening data, Wellcome Trust Sanger Institute”:

What was measured:
Assay in all cases: cells
JVM-2 = assay type: functional, cell-based; details: Homo sapiens;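 also: growth inhibition of JVM-2 cells determined by a cell viability assay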
Description: SANGER: Inhibition of human JVM-2 cell growth in a cell viability assay.

SK-UT-1 = assay type: functional, cell-based, Homo sapiens; details: Homo sapiens, SK-UT-1;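 also: growth inhibition of SK-UT-1 cells, measured by a cell viability assay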
Description: SANGER: Inhibition of human SK-UT-1 cell growth in a cell viability assay.

EW-11 = assay type: functional, cell-based, Homo sapiens; details: Homo sapiens, EW-11;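 also: growth inhibition of human EW-11 cells, measured with a cell viability assay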
Description: SANGER: Inhibition of human EW-11 cell growth in a cell viability assay.

CAS-1 = assay type: functional, cell-based, Homo sapiens; details: Homo sapiens, CAS-1;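 also: growth inhibition of CAS-1 cells, measured with a cell viability assay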
EW-1 = assay type: functional, cell-based, Homo sapiens; details: Homo sapiens, EW-1
Description: SANGER: Inhibition of human EW-1 cell growth in a cell viability assay.

Becker = assay type: functional, cell-based, Homo sapiens; details: Homo sapiens, Becker;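 also: growth inhibition of Becker cells, read out with a cell viability assay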
Description: SANGER: Inhibition of human Becker cell growth in a cell viability assay.

HCC1187 = assay type: functional, cell-based, Homo sapiens; details: Homo sapiens, HCC1187;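 also: growth inhibition of HCC1187 cells, read out with a cell viability assay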
Description: SANGER: Inhibition of human HCC1187 cell growth in a cell viability assay.

U-266 = assay type: functional, cell-based; details: Homo sapiens
Description: SANGER: Inhibition of human U-266 cell growth in a cell viability assay.

ES1 = assay type: functional, cell-based, Homo sapiens; details: Homo sapiens, ES1;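 also: growth inhibition of ES1 cells, read out with a cell viability assay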
Description: SANGER: Inhibition of human ES1 cell growth in a cell viability assay.

NCI-H69 = assay type: functional, cell-based; details: Homo sapiens;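 also: growth inhibition of the cell line, read out with a cell viability assay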
Description: SANGER: Inhibition of human NCI-H69 cell growth in a cell viability assay.

NCI-H720 = assay type: functional, cell-based; details: Homo sapiens;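 also: growth inhibition of human NCI-H720 cells determined by a cell viability assay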
Description: SANGER: Inhibition of human NCI-H720 cell growth in a cell viability assay.

NB14 = assay type: functional, cell-based; details: Homo sapiens;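 also: growth inhibition of NB14 cells measured with a cell viability assay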
Description: SANGER: Inhibition of human NB14 cell growth in a cell viability assay.

SK-N-FI = assay type: functional, cell-based, Homo sapiens; details: Homo sapiens, SK-N-FI;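 also: cell viability assay measuring growth inhibition of human SK-N-FI cells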
Description: SANGER: Inhibition of human SK-N-FI cell growth in a cell viability assay.

HCE-4 = assay type: functional, cell-based, Homo sapiens; details: Homo sapiens, HCE-4;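 also: cell viability assay measuring inhibition of growth in the human HCE-4 cell line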
Description: SANGER: Inhibition of human HCE-4 cell growth in a cell viability assay.

EW-24 = assay type: functional, cell-based; details: Homo sapiens;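 also: human EW-24 cancer cell line, growth inhibition read out via a cell viability assay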
Description: SANGER: Inhibition of human EW-24 cell growth in a cell viability assay.

MSTO-211H = assay type: functional, cell-based, Homo sapiens; details: Homo sapiens, MSTO-211H
Description: SANGER: Inhibition of human MSTO-211H cell growth in a cell viability assay.

D-247MG = assay type: functional, cell-based, Homo sapiens; details: Homo sapiens, D-247MG
Description: SANGER: Inhibition of human D-247MG cell growth in a cell viability assay.

HOP-62 = assay type: functional, cell-based, Homo sapiens; details: Homo sapiens, HOP-62;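 also: cell growth inhibition determined with a viability assay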
Description: SANGER: Inhibition of human HOP-62 cell growth in a cell viability assay.

RPMI-8226 = assay type: functional, cell-based; details: Homo sapiens
Description: SANGER: Inhibition of human RPMI-8226 cell growth in a cell viability assay.

LB771-HNC = assay type: functional, cell-based, Homo sapiens; details: Homo sapiens, LB771-HNC;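 also: growth inhibition of LB771-HNC human cells, read out with a cell viability assay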
A101D = assay type: functional, cell-based, Homo sapiens; details: Homo sapiens, A101D;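 also: growth inhibition of the cell line, measured with a viability assay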
Description: SANGER: Inhibition of human A101D cell growth in a cell viability assay.

SW982 = assay type: functional, cell-based; details: Homo sapiens;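 also: growth inhibition of SW982 cells, read out with a cell viability assay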
Description: SANGER: Inhibition of human SW982 cell growth in a cell viability assay.

SF-539 = assay type: functional, cell-based, Homo sapiens; details: Homo sapiens, SF-539;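 also: Read-out is a cell viability assay, with IC50 reflecting inhibition of cell growth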
Description: SANGER: Inhibition of human SF539 cell growth in a cell viability assay.

HCC2218 = assay type: functional, cell-based; details: Homo sapiens;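 also: cell viability assay read-out, with IC50 given as the concentration that inhibits growth of the cell line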
Description: SANGER: Inhibition of human HCC2218 cell growth in a cell viability assay.

DMS-79 = assay type: functional, cell-based; details: Homo sapiens;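 also: growth inhibition measured with a cell viability assay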
Description: SANGER: Inhibition of human DMS-79 cell growth in a cell viability assay.

LS-123 = assay type: functional, cell-based, Homo sapiens; details: Homo sapiens, LS-123
BT-474 = assay type: functional, cell-based, Homo sapiens; details: Homo sapiens, BT-474
Description: SANGER: Inhibition of human BT-474 cell growth in a cell viability assay.

Row | Structure (SMILES) | IC50 (JVM-2) [nM] | IC50 (SK-UT-1) [nM] | IC50 (EW-11) [nM] | IC50 (CAS-1) [nM] | IC50 (EW-1) [nM] | IC50 (Becker) [nM] | IC50 (HCC1187) [nM] | IC50 (U-266) [nM] | IC50 (ES1) [nM] | IC50 (NCI-H69) [nM] | IC50 (NCI-H720) [nM] | IC50 (NB14) [nM] | IC50 (SK-N-FI) [nM] | IC50 (EW-24) [nM] | IC50 (MSTO-211H) [nM] | IC50 (D-247MG) [nM] | IC50 (HOP-62) [nM] | IC50 (RPMI-8226) [nM] | IC50 (LB771-HNC) [nM] | IC50 (A101D) [nM] | further results
1 | CN1CCN(CCOc2cc(OC3CCOCC3)c3c(Nc4c(Cl)ccc5c4OCO5)ncnc3c2)CC1 [SARACATINIB] | > 2000 | > 2000 | > 2000 | > 2000 | > 2000 | > 2000 | > 2000 | > 2000 | > 2000 | > 2000 | > 2000 | > 2000 | > 2000 | 627 | > 2000 | > 2000 | 1500 | > 2000 | > 2000 | > 2000 | IC50 (HCE-4): > 2000 nM; IC50 (SW982): 1920 nM; IC50 (SF-539): > 2000 nM; IC50 (HCC2218): > 2000 nM; IC50 (DMS-79): > 2000 nM; IC50 (LS-123): > 2000 nM; IC50 (BT-474): > 2000 nM
2 | CO[C@H]1C[C@@H]2CC[C@@H](C)[C@@](O)(O2)C(=O)C(=O)N2CCCC[C@H]2C(=O)O[C@H]([C@H](C)C[C@@H]2CC[C@@H](O)[C@H](OC)C2)CC(=O)[C@H](C)/C=C(\C)[C@@H](O)[C@@H](OC)C(=O)[C@H](C)C[C@H](C)/C=C/C=C/C=C/1C [SIROLIMUS] | > 100 | 16.8 | > 100 | > 100 | 2.17 | 41.1 | > 100 | > 100 | > 100 | > 100 | 25.4 | > 100 | > 100 | > 100 | > 100 | > 100 | > 100 | 1.19 | > 100 | 32.6 | IC50 (HCE-4): > 100 nM; IC50 (SW982): > 100 nM; IC50 (SF-539): < 0.391 nM; IC50 (HCC2218): > 100 nM; IC50 (DMS-79): > 100 nM; IC50 (LS-123): > 100 nM; IC50 (BT-474): > 100 nM
3 | CNC(=O)c1cc(Oc2ccc(NC(=O)Nc3ccc(Cl)c(C(F)(F)F)c3)cc2)ccn1 [SORAFENIB] | > 4000 | > 4000 | > 4000 | > 4000 | > 4000 | > 4000 | > 4000 | > 4000 | > 4000 | > 4000 | > 4000 | > 4000 | > 4000 | > 4000 | > 4000 | 2140 | 851 | > 4000 | > 4000 | > 4000 | IC50 (SF-539): > 4000 nM; IC50 (HCC2218): 3120 nM; IC50 (DMS-79): > 4000 nM; IC50 (LS-123): > 4000 nM; IC50 (BT-474): > 4000 nM
4 | CCC(=O)N1CCN(c2ccc(-n3c(=O)ccc4cnc5ccc(-c6cnc7ccccc7c6)cc5c43)cc2C(F)(F)F)CC1 [TORIN1] | > 1200 | 22.6 | > 1200 | > 1200 | 7.49 | 64.2 | 468 | 132 | 31 | 502 | 550 | > 1200 | > 1200 | > 1200 | > 1200 | > 1200 | 35.6 | 6.51 | 75.5 | 26.5 | IC50 (HCE-4): 38.6 nM; IC50 (SW982): 42.5 nM; IC50 (SF-539): 984 nM; IC50 (HCC2218): 472 nM; IC50 (DMS-79): > 1200 nM; IC50 (LS-123): 59.4 nM; IC50 (BT-474): 293 nM
5 | Cc1cc(Nc2cc(N3CCN(C)CC3)nc(Sc3ccc(NC(=O)C4CC4)cc3)n2)n[nH]1 [TOZASERTIB] | > 2000 | 160 | > 2000 | > 2000 | 1190 | > 2000 | 1010 | > 2000 | > 2000 | > 2000 | > 2000 | > 2000 | > 2000 | > 2000 | > 2000 | > 2000 | 863 | > 2000 | > 2000 | 1870 | IC50 (HCE-4): 881 nM; IC50 (SW982): 214 nM; IC50 (SF-539): > 2000 nM; IC50 (HCC2218): > 2000 nM; IC50 (DMS-79): > 2000 nM; IC50 (LS-123): > 2000 nM; IC50 (BT-474): > 2000 nM
